Test results from ChEMBL document CHEMBL1201862, “PubChem BioAssay data set” (2004).
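The compound was tested at five concentrations on cells cultured in 96-well plates, with a 48-hour exposure period. The concentration for 50% growth inhibition is given as GI50.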 Active and inactive are the calls of the source. Cut-off read from the data, not from the text of the source: active = GI50 up to about 1.1 µM and inactive = higher.

Columns and labels:
Test in all cases: NCI tumour cell line growth inhibition, 48 h
ACHN = tested on: ACHN
HCT-116 = tested on: HCT-116
HOP-92 = tested on: HOP-92
M14 = tested on: M14
NCI-H460 = tested on: NCI-H460
NCI-H522 = tested on: NCI-H522
OVCAR-4 = tested on: OVCAR-4
RPMI-8226 = tested on: RPMI-8226
RXF 393 = tested on: RXF 393
SK-MEL-2 = tested on: SK-MEL-2
SK-MEL-5 = tested on: SK-MEL-5
SNB-75 = tested on: SNB-75
UACC-257 = tested on: UACC-257
XF498 = tested on: XF498
A498 = tested on: A498
BT-549 = tested on: BT-549
MOLT-4 = tested on: MOLT-4
NCI/ADR-RES = tested on: NCI/ADR-RES
OVCAR-5 = tested on: OVCAR-5
PC-3 = tested on: PC-3

SMILES | GI50 (ACHN) | GI50 (HCT-116) | GI50 (HOP-92) | GI50 (M14) | GI50 (NCI-H460) | GI50 (NCI-H522) | GI50 (OVCAR-4) | GI50 (RPMI-8226) | GI50 (RXF 393) | GI50 (SK-MEL-2) | GI50 (SK-MEL-5) | GI50 (SNB-75) | GI50 (UACC-257) | GI50 (XF498) | GI50 (A498) | GI50 (BT-549) | GI50 (MOLT-4) | GI50 (NCI/ADR-RES) | GI50 (OVCAR-5) | GI50 (PC-3)
Nc1nc(Cl)cc(NCCCCCCCCNc2cc(Cl)nc(N)n2)n1 | 0.221 µM (active) | 2.39 µM (inactive) | 7.76 µM (inactive) | 19.2 µM (inactive) | 31.3 µM (inactive) | 1.13 µM (inactive) | 4.29 µM (inactive) | 2.4 µM (inactive) | 12.2 µM (inactive) | 13.5 µM (inactive) | 0.675 µM (active) | 25.9 µM (inactive) | 2.91 µM (inactive) | 1.64 µM (inactive) |  |  |  |  |  | 
O=C1C=C(OCCCl)C(=O)c2c(O)ccc(O)c21 | 1.54 µM (inactive) | 0.409 µM (active) | 2.15 µM (inactive) | 0.177 µM (active) | 0.395 µM (active) | 2.32 µM (inactive) | 1.64 µM (inactive) | 2.08 µM (inactive) | 1.92 µM (inactive) | 0.478 µM (active) | 0.173 µM (active) | 0.405 µM (active) | 0.177 µM (active) |  | 1.28 µM (inactive) | 0.226 µM (active) | 1.72 µM (inactive) | 2.56 µM (inactive) | 1.59 µM (inactive) | 1.82 µM (inactive)
O=C(O)c1c([N+](=O)[O-])cc(C(F)(F)F)cc1[N+](=O)[O-] | > 100 µM (inactive) | > 100 µM (inactive) | 74.6 µM (inactive) | > 100 µM (inactive) | > 100 µM (inactive) | > 100 µM (inactive) | > 100 µM (inactive) | > 100 µM (inactive) | > 100 µM (inactive) | > 100 µM (inactive) | > 100 µM (inactive) |  | > 100 µM (inactive) | 35.2 µM (inactive) | > 100 µM (inactive) |  | > 100 µM (inactive) |  | > 100 µM (inactive) | 
O=C1O[C@H](c2ccccc2)[C@@H]2CC3(CCN12)OCCO3 | > 100 µM (inactive) | > 100 µM (inactive) | 69.2 µM (inactive) | > 100 µM (inactive) | > 100 µM (inactive) | 2.2 µM (inactive) | > 100 µM (inactive) | > 100 µM (inactive) | > 100 µM (inactive) | > 100 µM (inactive) | > 100 µM (inactive) |  | > 100 µM (inactive) | > 100 µM (inactive) | > 100 µM (inactive) |  | > 100 µM (inactive) |  | > 100 µM (inactive) | 
CC(CCCOC(c1ccccc1)(c1ccccc1)c1ccccc1)OC(=O)Nc1ccccc1 (configuration not stated) | 13.6 µM (inactive) | 11.1 µM (inactive) | 10 µM (inactive) | 14.2 µM (inactive) | 11.7 µM (inactive) | 11.7 µM (inactive) | 12.4 µM (inactive) | 15 µM (inactive) | 12.8 µM (inactive) |  | 14.1 µM (inactive) | 14.5 µM (inactive) | 15.3 µM (inactive) | 14.9 µM (inactive) |  |  | 4.55 µM (inactive) |  | 13.7 µM (inactive) | 
O=C(c1ccsc1)c1cc2c(s1)C(=O)c1ccsc1C2=O | 0.0959 µM (active) | 0.195 µM (active) | 0.34 µM (active) | 0.116 µM (active) | 0.184 µM (active) | 0.137 µM (active) | 0.177 µM (active) | 0.136 µM (active) | 0.178 µM (active) | 0.281 µM (active) | 0.0279 µM (active) | 0.171 µM (active) | 0.174 µM (active) |  | 1.58 µM (inactive) | 0.0807 µM (active) | 0.435 µM (active) | 0.137 µM (active) | 0.552 µM (active) | 0.29 µM (active)
O=C1/C(=C/c2ccccc2[N+](=O)[O-])N=C(c2ccccc2)N1C1Nc2cc3c(cc2S1)NC(N1C(=O)/C(=C/c2ccccc2[N+](=O)[O-])N=C1c1ccccc1)S3 (configuration not stated) | 28.4 µM (inactive) | 16 µM (inactive) | > 100 µM (inactive) | 68.5 µM (inactive) | 5.45 µM (inactive) | 17.3 µM (inactive) | 53.5 µM (inactive) | 18.1 µM (inactive) | > 100 µM (inactive) | 36.8 µM (inactive) | 42.1 µM (inactive) | > 100 µM (inactive) | 91 µM (inactive) |  | 27.5 µM (inactive) | 40.4 µM (inactive) | 19.3 µM (inactive) | 25.3 µM (inactive) | > 100 µM (inactive) | 32.9 µM (inactive)
O=C1OC(=O)C23CSCC12C1C=CC3O1 (configuration not stated) | > 100 µM (inactive) | > 100 µM (inactive) |  | > 100 µM (inactive) | > 100 µM (inactive) | > 100 µM (inactive) |  | > 100 µM (inactive) | > 100 µM (inactive) | > 100 µM (inactive) | > 100 µM (inactive) | > 100 µM (inactive) | > 100 µM (inactive) | > 100 µM (inactive) | > 100 µM (inactive) |  | > 100 µM (inactive) |  | > 100 µM (inactive) | 
CCC1(C(=O)OC)CCc2c(OC)ccc(OC)c2C1=O (configuration not stated) | > 100 µM (inactive) | > 100 µM (inactive) |  | > 100 µM (inactive) | > 100 µM (inactive) | > 100 µM (inactive) | > 100 µM (inactive) | > 100 µM (inactive) |  | > 100 µM (inactive) | > 100 µM (inactive) |  | > 100 µM (inactive) | > 100 µM (inactive) | > 100 µM (inactive) |  | > 100 µM (inactive) |  | > 100 µM (inactive) | 
CCOC(=O)C[C@@]12CCCNC1(C)CCc1ccccc12 (some centres not stated) | > 100 µM (inactive) | > 100 µM (inactive) |  | > 100 µM (inactive) | > 100 µM (inactive) |  |  | > 100 µM (inactive) |  | > 100 µM (inactive) | > 100 µM (inactive) |  | > 100 µM (inactive) | > 100 µM (inactive) |  |  | > 100 µM (inactive) |  |  | 
C[C@@H]1C[C@@H]([C@H](O)CC2CC(=O)NC(=O)C2)C(=O)[C@@H](C)C1 [CYCLOHEXIMIDE] | 0.0291 µM (active) | 0.0738 µM (active) | 0.0366 µM (active) | 0.0532 µM (active) | 0.122 µM (active) | 0.0395 µM (active) | 0.0366 µM (active) | 0.0362 µM (active) | 0.0315 µM (active) | 0.106 µM (active) | 0.0248 µM (active) | 0.083 µM (active) | 0.0912 µM (active) | 0.0348 µM (active) |  |  | < 0.0176 µM (active) |  | 0.141 µM (active) | 
C[C@]12CC[C@H](O)C[C@H]1CC[C@@H]1[C@@H]2CC[C@]2(C)[C@@H](C3=CC(=O)OC3)[C@@H](O)C[C@]12O [GITOXIGENIN] | 0.451 µM (active) | 1.66 µM (inactive) | 9.66 µM (inactive) | 2.45 µM (inactive) | 0.499 µM (active) | 0.435 µM (active) | 1.4 µM (inactive) | 2.77 µM (inactive) | 1.15 µM (inactive) | 2.17 µM (inactive) | 1.3 µM (inactive) | 4.15 µM (inactive) | 2.2 µM (inactive) |  | 2.72 µM (inactive) | 1.89 µM (inactive) | 0.408 µM (active) | 1.61 µM (inactive) | 2.81 µM (inactive) | 1.44 µM (inactive)
